How the values were obtained:
Type in all cases: in vivo
Bemisia tabaci = Bemisia tabaci (cotton white fly) feeding/contact activity, cotton leaf discs; settings: foliar, 144 h, application rate 200 ppm, adult white flies, 6 days after incubation
Description: Example B1: Bemisia tabaci (Cotton White Fly): Feeding/Contact Activity
Cotton leaf discs were placed on agar in 24-well microtiter plates and sprayed with aqueous test solutions prepared from 10′000 ppm DMSO stock solutions. After drying the leaf discs were infested with adult white flies. The samples were checked for mortality 6 days after incubation.

Diabrotica Balteata = experiment: Diabrotica balteata (corn root worm), maize sprouts, L2 larvae; settings: 96 h, application rate 200 ppm, 4 days after infestation, read-out: effect in at least one of the two categories (mortality or growth inhibition)
Description: Example B2: Diabrotica Balteata (Corn Root Worm)
Maize sprouts placed onto an agar layer in 24-well microtiter plates were treated with aqueous test solutions prepared from 10′000 ppm DMSO stock solutions by spraying. After drying, the plates were infested with L2 larvae (6 to 10 per well). The samples were assessed for mortality and growth inhibition in comparison to untreated samples 4 days after infestation.

Euschistus heros = Euschistus heros (neotropical brown stink bug), soybean leaves, N2 nymphs; settings: 120 h, application rate 200 ppm, 5 days after infestation, read-out: effect in at least one of the two categories (mortality or growth inhibition)
Description: Example B3: Euschistus heros (Neotropical Brown Stink Bug)
Soybean leaves on agar in 24-well microtiter plates were sprayed with aqueous test solutions prepared from 10′000 ppm DMSO stock solutions. After drying the leaves were infested with N2 nymphs. The samples were assessed for mortality and growth inhibition in comparison to untreated samples 5 days after infestation.

[1] = system: Frankliniella occidentalis; experiment: Frankliniella occidentalis (western flower thrips) feeding/contact activity, sunflower leaf discs; settings: foliar, 168 h, application rate 200 ppm, population of mixed ages, 7 days after infestation
Description: Example B4: Frankliniella occidentalis (Western Flower Thrips): Feeding/Contact Activity
Sunflower leaf discs were placed on agar in 24-well microtiter plates and sprayed with aqueous test solutions prepared from […] stock solutions. After drying the leaf discs were infested with a Frankliniella population of mixed ages. The samples were assessed for mortality 7 days after infestation.

Myzus persicae [2] = experiment: Myzus persicae (green peach aphid) feeding/contact activity, sunflower leaf discs; settings: foliar, 144 h, application rate 200 ppm, 6 days after infestation
Description: Example B5: Myzus persicae (Green Peach Aphid): Feeding/Contact Activity
Sunflower leaf discs were placed onto agar in a 24-well microtiter plate and sprayed with aqueous test solutions prepared from 10′000 ppm DMSO stock solutions. After drying, the leaf discs were infested with an aphid population of mixed ages. The samples were assessed for mortality 6 days after infestation.

Myzus persicae [3] = experiment: Myzus persicae (green peach aphid) systemic activity, pea seedling roots; settings: 144 h, test rate 24 ppm, 6 days after placing seedlings into test solutions
Plutella xylostella = Plutella xylostella (diamond back moth), artificial diet, L2 larvae; settings: 120 h, application rate 200 ppm, 5 days after infestation, read-out: effect in at least one of the two categories (mortality or growth inhibition)
Description: Example B7: Plutella xylostella (Diamond Back Moth)
24-well microtiter plates with artificial diet were treated with aqueous test solutions prepared from 10′000 ppm DMSO stock solutions by pipetting. After drying, the plates were infested with L2 larvae (10 to 15 per well). The samples were assessed for mortality and growth inhibition in comparison to untreated samples 5 days after infestation.

Spodoptera littoralis [4] = experiment: Spodoptera littoralis (Egyptian cotton leaf worm), cotton leaf discs, L1 larvae; settings: foliar, 72 h, application rate 200 ppm, L1 larvae on cotton leaf discs, 3 days after infestation
Description: Example B8: Spodoptera littoralis (Egyptian Cotton Leaf Worm)
Cotton leaf discs were placed onto agar in 24-well microtiter plates and sprayed with aqueous test solutions prepared from 10′000 ppm DMSO stock solutions. After drying the leaf discs were infested with five L1 larvae. The samples were assessed for mortality, anti-feeding effect, and growth inhibition in comparison to untreated samples 3 days after infestation. Control of Spodoptera littoralis by a test sample is given when at least one of the categories mortality, anti-feedant effect, and growth inhibition is higher than the untreated sample.

Spodoptera littoralis [5] = experiment: Spodoptera littoralis (Egyptian cotton leaf worm), uptake by lettuce roots from agar, eggs; settings: 144 h, test rate 12.5 ppm, lettuce root uptake, 6 days after infestation, read-out: effect in at least one of the three categories (mortality, anti-feeding, or growth inhibition)
Source text: Example B9: Spodoptera littoralis (Egyptian Cotton Leaf Worm)
Test compounds were applied by pipette from 10′000 ppm DMSO stock solutions into 24-well plates and mixed with agar. Lettuce seeds were placed onto the agar and the multi well plate was closed by another plate which contained also agar. After 7 days the compound was absorbed by the roots and the lettuce grew into the lid plate. The lettuce leaves were then cut off into the lid plate. Spodoptera eggs were pipetted through a plastic stencil onto a humid gel blotting paper and the lid plate was closed with it. The samples were assessed for mortality, anti-feedant effect and growth inhibition in comparison to untreated samples 6 days after infestation.

Tetranychus urticae = Tetranychus urticae (two-spotted spider mite) feeding/contact activity, bean leaf discs; settings: foliar, 192 h, application rate 200 ppm, mixed population (mobile stages), 8 days after infestation
Description: Example B10: Tetranychus urticae (Two-Spotted Spider Mite): Feeding/Contact Activity
Bean leaf discs on agar in 24-well microtiter plates were sprayed with aqueous test solutions prepared from 10′000 ppm DMSO stock solutions. After drying the leaf discs were infested with a mite population of mixed ages. The samples were assessed for mortality on mixed population (mobile stages) 8 days after infestation.

Thrips tabaci = Thrips tabaci (onion thrips) feeding/contact activity, sunflower leaf discs; settings: foliar, 144 h, application rate 200 ppm, population of mixed ages, 6 days after infestation
Description: Example B11: Thrips tabaci (Onion Thrips) Feeding/Contact Activity
Sunflower leaf discs were placed on agar in 24-well microtiter plates and sprayed with aqueous test solutions prepared from 10′000 ppm DMSO stock solutions. After drying the leaf discs were infested with a thrips population of mixed ages. The samples were assessed for mortality 6 days after infestation.

Aedes aegypti = Aedes aegypti (yellow fever mosquito), dry deposit in 12 well plates, adult females; settings: application rate 200 ppm in ethanol, after 48 h and/or 24 h
Description: Example B12: Aedes aegypti (Yellow Fever Mosquito)
Test solutions, at an application rate of 200 ppm in ethanol, were applied to 12 well tissue culture plates. Once the deposits were dry, five, two to five day old adult female Aedes aegypti were added to each well, and sustained with a 10% sucrose solution in a cotton wool plug. Assessment of knockdown was made one hour after introduction, and mortality was assessed at 24 and 48 hours after introduction.

Anopheles stephensi = Anopheles stephensi (Indian malaria mosquito), dry deposit in 12 well plates, adult females; settings: application rate 200 ppm in ethanol, after 48 h and/or 24 h
Description: Example B13: Anopheles stephensi (Indian Malaria Mosquito)
Test solutions, at an application rate of 200 ppm in ethanol, were applied to 12 well tissue culture plates. Once the deposits were dry, five, two to five day old adult female Anopheles stephensi were added to each well, and sustained with a 10% sucrose solution in a cotton wool plug. Assessment of knockdown was made one hour after introduction, and mortality was assessed at 24 and 48 hours after introduction.

CCS(=O)(=O)c1cc(C(F)(F)F)cnc1-c1nc2cc(S(=O)(=O)C(F)(F)F)ncc2n1C [Compound P8, 2-[3-ethylsulfonyl-5-(trifluoromethyl)-2-pyridyl]-3-methyl-6-(trifluoromethylsulfonyl) imidazo[4,5-c]pyridine]
≥ 80%: mortality at 200 ppm (Bemisia tabaci) | percent effect (mortality or growth inhibition) at 200 ppm (Diabrotica Balteata) | percent effect (mortality or growth inhibition) at 200 ppm (Euschistus heros) | mortality at 200 ppm [1] | mortality at 200 ppm (Myzus persicae [2]) | mortality at 24 ppm (Myzus persicae [3]) | percent effect (mortality or growth inhibition) at 200 ppm (Plutella xylostella) | percent control (mortality, anti-feedant effect or growth inhibition) at 200 ppm (Spodoptera littoralis [4]) | percent effect (mortality, anti-feeding or growth inhibition) at 12.5 ppm (Spodoptera littoralis [5]) | mortality at 200 ppm (Tetranychus urticae) | mortality at 200 ppm (Thrips tabaci) | pest or weed control at 200 ppm (Aedes aegypti) | pest or weed control at 200 ppm (Anopheles stephensi)

CCS(=O)(=O)c1cc(C(F)(F)F)cnc1-c1nc2cc([S+]([O-])C(F)(F)F)ncc2n1C (stereo not shown) [Compound P9, 2-[3-ethylsulfonyl-5-(trifluoromethyl)-2-pyridyl]-3-methyl-6-(trifluoromethylsulfinyl) imidazo[4,5-c]pyridine]
≥ 80%: mortality at 200 ppm (Bemisia tabaci) | percent effect (mortality or growth inhibition) at 200 ppm (Diabrotica Balteata) | percent effect (mortality or growth inhibition) at 200 ppm (Euschistus heros) | mortality at 200 ppm [1] | mortality at 200 ppm (Myzus persicae [2]) | mortality at 24 ppm (Myzus persicae [3]) | percent effect (mortality or growth inhibition) at 200 ppm (Plutella xylostella) | percent control (mortality, anti-feedant effect or growth inhibition) at 200 ppm (Spodoptera littoralis [4]) | percent effect (mortality, anti-feeding or growth inhibition) at 12.5 ppm (Spodoptera littoralis [5]) | mortality at 200 ppm (Thrips tabaci) | pest or weed control at 200 ppm (Aedes aegypti) | pest or weed control at 200 ppm (Anopheles stephensi)

CCS(=O)(=O)c1cc(C(F)(F)F)cnc1-c1nc2cc(SC(F)(F)F)ncc2n1C [Compound P10, 2-[3-ethylsulfonyl-5-(trifluoromethyl)-2-pyridyl]-3-methyl-6-(trifluoromethylsulfanyl)imidazo[4,5-c]pyridine]
≥ 80%: mortality at 200 ppm (Bemisia tabaci) | percent effect (mortality or growth inhibition) at 200 ppm (Diabrotica Balteata) | percent effect (mortality or growth inhibition) at 200 ppm (Euschistus heros) | mortality at 200 ppm [1] | mortality at 200 ppm (Myzus persicae [2]) | mortality at 24 ppm (Myzus persicae [3]) | percent effect (mortality or growth inhibition) at 200 ppm (Plutella xylostella) | percent control (mortality, anti-feedant effect or growth inhibition) at 200 ppm (Spodoptera littoralis [4]) | percent effect (mortality, anti-feeding or growth inhibition) at 12.5 ppm (Spodoptera littoralis [5]) | mortality at 200 ppm (Thrips tabaci) | pest or weed control at 200 ppm (Aedes aegypti) | pest or weed control at 200 ppm (Anopheles stephensi)

From patent US10385048B2, “Pesticidally active polycyclic derivatives with sulfur containing substituents” (Syngenta Participations AG, priority 2014, dated 2019)
